Assay results published in PMC2735258 (Journal of medicinal chemistry, 2009).
Where “and” joins values, the source holds several entries; their conditions need not be identical. Identical values can stand only once. Like-named read-outs stand apart in the source and are kept apart here. Square brackets hold non-standard residues; d marks the D form. Ends that are not written are not given here. * marks the point of attachment. pY = N[C@@H](Cc1ccc(OP(=O)(O)O)cc1)C(=O)O; pCinn = not defined here; NHBn = c1ccc(CN*)cc1

Legend:
[1] = target: T1, Stat3 (Homo sapiens, UniProt P40763); experiment: Stat3 SH2 domain affinity, fluorescence polarization; type: binding; conditions: for fold loss in affinity: relative to compound 21; for fold weaker / loss in affinity: relative to compound 28
T1 sequence (P40763 whole entry, species assumed, the tested form may be a part): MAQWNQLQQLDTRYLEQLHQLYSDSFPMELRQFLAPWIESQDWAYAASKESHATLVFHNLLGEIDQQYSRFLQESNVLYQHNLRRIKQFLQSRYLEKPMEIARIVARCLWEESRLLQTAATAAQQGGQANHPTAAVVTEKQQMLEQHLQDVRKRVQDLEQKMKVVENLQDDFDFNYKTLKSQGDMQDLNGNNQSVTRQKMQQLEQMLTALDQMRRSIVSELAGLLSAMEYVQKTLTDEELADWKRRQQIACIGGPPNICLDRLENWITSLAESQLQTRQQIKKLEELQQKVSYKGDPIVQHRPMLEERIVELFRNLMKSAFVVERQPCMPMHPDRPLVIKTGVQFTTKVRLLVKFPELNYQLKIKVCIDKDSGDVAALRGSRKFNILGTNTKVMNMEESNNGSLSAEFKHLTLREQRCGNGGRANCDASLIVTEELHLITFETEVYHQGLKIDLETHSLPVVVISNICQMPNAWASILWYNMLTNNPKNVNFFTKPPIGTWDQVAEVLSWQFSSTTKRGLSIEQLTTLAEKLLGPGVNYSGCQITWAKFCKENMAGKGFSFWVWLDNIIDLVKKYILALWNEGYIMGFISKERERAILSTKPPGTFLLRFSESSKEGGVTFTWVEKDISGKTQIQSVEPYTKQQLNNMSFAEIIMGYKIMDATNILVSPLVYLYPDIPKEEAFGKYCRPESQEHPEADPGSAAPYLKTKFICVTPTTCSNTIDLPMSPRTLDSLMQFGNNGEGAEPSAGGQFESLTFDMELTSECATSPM

[2] = target: T1, Stat3; conditions: cited from earlier work
[3] = lead phosphopeptides, ref Coleman et al.[16]

Compound: O=C(O)CCCNC(=O)[C@@H]1Cc2cccc3c2N1C(=O)[C@@H](NC(=O)/C=C/c1ccc(OP(=O)(O)O)cc1)CC3 [Compound 24, pCinn-Haic-Gaba]
- fold loss in affinity [1]: 5 fold

Compound: NC(=O)CC[C@H](NC(=O)[C@@H]1CC[C@@H]2CC[C@H](NC(=O)/C=C/c3ccc(OP(=O)(O)O)cc3)C(=O)N21)C(=O)NCc1ccccc1 [Compound 18, pCinn-(3S,6S,9S)-ABN-Gln-NHBn]
- fold lower affinity ([1]; relative to Leu-Pro analogue 17): 4 fold

Compound: Ac-[pY]LPQ-NH2 [Compound 3]
- IC50 [2, 3]: 856 ± 41 nM

Compound: Ac-Tyr(PO3H2)-Leu-Pro-Gln-NHBn (Ac-[pY]LPQ-NHBn; SMILES CC(=O)N[C@@H](Cc1ccc(OP(=O)(O)O)cc1)C(=O)N[C@@H](CC(C)C)C(=O)N1CCC[C@H]1C(=O)N[C@@H](CCC(N)=O)C(=O)NCc1ccccc1) [Compound 4]
- IC50 [2, 3]: 409 ± 15 nM

Compound: C[C@H](NC(=O)[C@@H]1Cc2cccc3c2N1C(=O)[C@@H](NC(=O)/C=C/c1ccc(OP(=O)(O)O)cc1)CC3)C(N)=O [Compound 32, pCinn-Haic-Ala-NH2]
- activity / affinity for Stat3 in words [1]: micromolar range

Compound: C[S+]([O-])CC[C@H](NC(=O)[C@@H]1Cc2cccc3c2N1C(=O)[C@@H](NC(=O)/C=C/c1ccc(OP(=O)(O)O)cc1)CC3)C(N)=O (stereo partly shown) [Compound 34, pCinn-Haic-Met(O)-NH2]
- fold weaker / loss in affinity [1]: ~10 fold

Compound: NC(=O)CC[C@H](NC(=O)[C@@H]1Cc2cccc3c2N1C(=O)[C@@H](NC(=O)/C=C/c1ccc(OP(=O)(O)O)cc1)CC3)C(=O)O [Compound 26, pCinn-Haic-Gln-OH]
- fold loss in affinity [1]: 2 fold

Compound: NC(=O)[C@@H]1Cc2cccc3c2N1C(=O)[C@@H](NC(=O)/C=C/c1ccc(OP(=O)(O)O)cc1)CC3 [Compound 31, pCinn-Haic-NH2]
- fold weaker ([1]; relative to compound 24): 42 fold
- fold weaker / loss in affinity [1]: 150 fold

Compound: CS(=O)(=O)CC[C@H](NC(=O)[C@@H]1Cc2cccc3c2N1C(=O)[C@@H](NC(=O)/C=C/c1ccc(OP(=O)(O)O)cc1)CC3)C(N)=O [Compound 35, pCinn-Haic-Met(O2)-NH2]
- fold weaker / loss in affinity [1]: ~10 fold

Compound: 7: XXX-Leu-Pro-Gln-Thr-NH2 with XXX = Ac-pTic; drawing shows XXX only [Compound 7]
- IC50 ([1]; fluorescence polarization): > 100000 nM

Compound: Ac-Tyr(PO3H2)-Leu-Pro-Gln-Thr-NH2 (Ac-[pY]LPQT-NH2; SMILES CC(=O)N[C@@H](Cc1ccc(OP(=O)(O)O)cc1)C(=O)N[C@@H](CC(C)C)C(=O)N1CCC[C@H]1C(=O)N[C@@H](CCC(N)=O)C(=O)N[C@H](C(N)=O)[C@@H](C)O) [Compound 2]
- IC50 [2, 3]: 740 nM and 739 nM

Compound: pCinn-Leu-Pro-Gln-NHBn ([pCinn]LPQ-NHBn; reading uncertain; also: printed as pCinn-Leu-Pro-Gln-NHBn) [Compound 17]
- IC50 ([2]; ref [69]): 138 ± 8 nM
